For this assay, the target named is T1, 3-hydroxy-3-methylglutaryl-coenzyme A reductase (Homo sapiens, UniProt P04035).
T1 sequence (P04035 whole entry): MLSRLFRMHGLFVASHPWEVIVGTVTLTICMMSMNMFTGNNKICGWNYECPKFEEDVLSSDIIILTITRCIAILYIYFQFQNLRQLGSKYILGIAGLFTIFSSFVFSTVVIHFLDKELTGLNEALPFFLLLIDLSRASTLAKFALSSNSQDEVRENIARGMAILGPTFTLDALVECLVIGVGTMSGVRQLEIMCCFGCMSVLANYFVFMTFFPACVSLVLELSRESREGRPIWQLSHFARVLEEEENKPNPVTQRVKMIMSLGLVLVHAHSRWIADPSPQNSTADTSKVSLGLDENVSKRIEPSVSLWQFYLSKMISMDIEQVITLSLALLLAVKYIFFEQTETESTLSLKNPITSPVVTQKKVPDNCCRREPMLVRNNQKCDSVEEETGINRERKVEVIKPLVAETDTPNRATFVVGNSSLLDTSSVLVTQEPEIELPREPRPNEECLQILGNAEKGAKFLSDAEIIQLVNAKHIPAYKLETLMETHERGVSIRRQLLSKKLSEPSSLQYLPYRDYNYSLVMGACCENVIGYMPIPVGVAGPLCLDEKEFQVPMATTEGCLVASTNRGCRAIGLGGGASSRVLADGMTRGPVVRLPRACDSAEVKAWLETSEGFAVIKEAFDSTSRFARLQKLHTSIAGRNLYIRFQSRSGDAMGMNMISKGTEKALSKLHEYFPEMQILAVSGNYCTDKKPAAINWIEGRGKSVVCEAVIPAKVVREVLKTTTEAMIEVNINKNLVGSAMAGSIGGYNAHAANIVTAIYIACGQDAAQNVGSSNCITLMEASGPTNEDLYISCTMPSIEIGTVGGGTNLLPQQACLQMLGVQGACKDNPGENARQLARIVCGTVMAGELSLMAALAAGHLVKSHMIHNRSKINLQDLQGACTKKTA
Nature of the assay: Inhibition of HMG CoA reductase.

The term IC50 denotes the concentration at which inhibition is half-maximal. `CCCCCC[C@@H]1C[C@@H]1CCCCCCCCCC(=O)OCC(O)COP(=O)([O-])OCC[N+](C)(C)C` (relative stereo) [LYSOPHOSPHATIDYLCHOLINE] had an IC50 of 112 µM.

(Values after ChEMBL document CHEMBL1150228, “Synthesis of a novel lysophosphatidylcholine” (J Nat Prod, 2001).)
